The text below walks through data of patent US12122761B2, “2-azaspiro[3.4]octane derivatives as M4 agonists” (NOVARTIS AG, priority 2019, dated 2024).

The target of this experiment is T1, human cloned CHRM5 receptor (M5_CHO) (Homo sapiens, UniProt P08912).
T1 construct: expressed in transfected cells; host or cells: CHO (M5_CHO)
T1 sequence (P08912 1-532): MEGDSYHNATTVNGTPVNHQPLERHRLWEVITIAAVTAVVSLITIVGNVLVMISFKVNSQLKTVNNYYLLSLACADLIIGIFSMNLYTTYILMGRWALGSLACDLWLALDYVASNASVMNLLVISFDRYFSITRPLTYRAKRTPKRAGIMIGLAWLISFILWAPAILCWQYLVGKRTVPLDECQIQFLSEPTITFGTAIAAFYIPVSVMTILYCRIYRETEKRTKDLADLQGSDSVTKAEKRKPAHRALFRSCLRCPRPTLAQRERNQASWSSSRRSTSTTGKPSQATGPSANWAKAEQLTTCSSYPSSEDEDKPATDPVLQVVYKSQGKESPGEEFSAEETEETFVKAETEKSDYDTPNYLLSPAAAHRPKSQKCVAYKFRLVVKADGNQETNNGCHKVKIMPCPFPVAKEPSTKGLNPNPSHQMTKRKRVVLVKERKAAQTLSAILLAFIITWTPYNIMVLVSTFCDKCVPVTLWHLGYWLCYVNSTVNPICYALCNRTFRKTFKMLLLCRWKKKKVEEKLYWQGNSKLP
The experiment can be described thus: CHRM5 Ca++ Flux Assay (agonist mode, FDSS 7000EX). It is filed as cell-based. The settings on record: for Emax: Percent Activity measured to EC100 of Carbachol, read-out: M5 FDSS PA; for EC50: agonist mode, geometric mean if tested more than once, read-out: M5 FDSS EC50. In short, it runs like this: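 Fluorescent intracellular Ca++ signal, recorded for 3 min, served as read-out for CHO-K1 cells stably carrying human M3 or M5 receptor. Triplicate 11-point dose responses were averaged and fitted to a four-parameter model, with percent activity referenced to the carbachol EC100.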

For `CC(C)(O)CCOc1ccccc1C1CCN([C@@H]2CCC3(C2)CN(c2nnco2)C3)CC1` [Example 1F], the Emax was determined as 0% and the EC50 (commonly the concentration giving half of the maximal effect) was more than 25 µM.
In the case of `c1ccc(C2CCN([C@H]3CCC4(C3)CN(c3nnco3)C4)CC2)c(C2CCOCC2)c1` (single isomer, unassigned) [Example 10T], the Emax was found to be 0% and the EC50 is more than 25 µM.
The matching figures for `O=C(C1COC1)N1CC2(CC[C@@H](N3CCC(c4ccccc4OC4CCCC4)CC3)C2)C1` [Example 7G, (R)-(6-(4-(2-(cyclopentyloxy)phenyl)piperidin-1-yl)-2-azaspiro[3.4]octan-2-yl)(oxetan-3-yl)methanone]: 0% and more than 25 µM.
For `COCCOc1ccccc1C1CCN([C@@H]2CCC3(C2)CN(c2nncs2)C3)CC1` [Example 3F, (R)-2-(6-(4-(2-(2-methoxyethoxy)phenyl)piperidin-1-yl)-2-azaspiro[3.4]octan-2-yl)-1,3,4-thiadiazole] the same measures were 0% and more than 25 µM.
The matching figures for `c1ccc(C2CCN([C@@H]3CCC4(C3)CN(c3nnco3)C4)CC2)c(OC[C@@H]2COCCO2)c1` [Example 1E, 2-((R)-6-(4-(2-(((S)-1,4-dioxan-2-yl)methoxy)phenyl)piperidin-1-yl)-2-azaspiro[3.4]octan-2-yl)-1,3,4-oxadiazole]: 0% and more than 25 µM.
As for `O=C(C1COC1)N1CC2(CC[C@@H](N3CCC(c4ccccc4OCCC4COC4)CC3)C2)C1` [Example 7KK, (R)-oxetan-3-yl(6-(4-(2-(2-(oxetan-3-yl)ethoxy)phenyl)piperidin-1-yl)-2-azaspiro[3.4]octan-2-yl)methanone], the Emax is 0% and the EC50 was more than 25 µM.
In the case of `O=C(C1COC1)N1CC2(CC[C@@H](N3CCC(c4ccc(F)cc4OC(F)F)CC3)C2)C1` [Example 6B, (R)-(6-(4-(2-(difluoromethoxy)-4-fluorophenyl)piperidin-1-yl)-2-azaspiro[3.4]octan-2-yl)(oxetan-3-yl)methanone], the Emax is 0% and the EC50 is more than 25 µM.
The matching figures for `COCCOc1ccccc1C1CCN([C@@H]2CCC3(C2)CN(c2cccnn2)C3)CC1` [Example 5X, (R)-6-(4-(2-(2-methoxyethoxy)phenyl)piperidin-1-yl)-2-(pyridazin-3-yl)-2-azaspiro[3.4]octane]: 0% and more than 25 µM.
As to `O=C(C1COC1)N1CC2(CC[C@@H](N3CCC(c4ccccc4OCCC(F)(F)F)CC3)C2)C1` [Example 7GG, (R)-oxetan-3-yl(6-(4-(2-(3,3,3-trifluoropropoxy)phenyl)piperidin-1-yl)-2-azaspiro[3.4]octan-2-yl)methanone], the Emax stood at 14% and the EC50 turned out to be 0.974 µM.
For `FC1(COc2ccccc2C2CCN([C@@H]3CCC4(C3)CN(c3nncs3)C4)CC2)COC1` [Example 1H, (R)-2-(6-(4-(2-((3-fluorooxetan-3-yl)methoxy)phenyl)piperidin-1-yl)-2-azaspiro[3.4]octan-2-yl)-1,3,4-thiadiazole] the same measures were 10% and 2.02 µM.
For `c1ccc(C2CCN([C@@H]3CCC4(C3)CN(c3nncs3)C4)CC2)c(OC[C@H]2COCCO2)c1` [Example 3B, 2-((R)-6-(4-(2-(((R)-1,4-dioxan-2-yl)methoxy)phenyl)piperidin-1-yl)-2-azaspiro[3.4]octan-2-yl)-1,3,4-thiadiazole] the same measures were 0% and more than 25 µM.
For `O=C(C1COC1)N1CC2(CC[C@@H](N3CCC(c4ccccc4OCC4CC4)CC3)C2)C1` [Example 7I, (R)-(6-(4-(2-(cyclopropylmethoxy)phenyl)piperidin-1-yl)-2-azaspiro[3.4]octan-2-yl)(oxetan-3-yl)methanone] the same measures were 0% and more than 25 µM.
Take `Fc1cccc(C2CCN([C@@H]3CCC4(C3)CN(c3nncs3)C4)CC2)c1OC1COC1` [Example 3E, (R)-2-(6-(4-(3-fluoro-2-(oxetan-3-yloxy)phenyl)piperidin-1-yl)-2-azaspiro[3.4]octan-2-yl)-1,3,4-thiadiazole]: the Emax came to 0% and the EC50 is more than 25 µM.
Turning to `Cc1nccnc1N1CC2(CC[C@@H](N3CCC(c4ccccc4OCC(C)(C)O)CC3)C2)C1` [Example 5T, (R)-2-methyl-1-(2-(1-(2-(3-methylpyrazin-2-yl)-2-azaspiro[3.4]octan-6-yl)piperidin-4-yl)phenoxy)propan-2-ol], the Emax was 0% and the EC50 was more than 25 µM.
The matching figures for `CC(C)(O)CCOc1ccccc1C1CCN([C@@H]2CCC3(C2)CN(C(=O)C2COC2)C3)CC1` [Example 7CC, (R)-(6-(4-(2-(3-hydroxy-3-methylbutoxy)phenyl)piperidin-1-yl)-2-azaspiro[3.4]octan-2-yl)(oxetan-3-yl)methanone]: 9% and 2.01 µM.
For `CCOc1ccccc1C1CCN([C@@H]2CCC3(C2)CN(C(=O)C2COC2)C3)CC1` [Example 7J, (R)-(6-(4-(2-ethoxyphenyl)piperidin-1-yl)-2-azaspiro[3.4]octan-2-yl)(oxetan-3-yl)methanone], the Emax amounted to 0%.
For the molecule `Fc1ccc(N2CC3(CC[C@@H](N4CCC(c5ccccc5C5CCOCC5)CC4)C3)C2)cn1` [Example 5CC, (R)-2-(6-fluoropyridin-3-yl)-6-(4-(2-(tetrahydro-2H-pyran-4-yl)phenyl)piperidin-1-yl)-2-azaspiro[3.4]octane], the Emax is 0% and the concentration giving a half-maximal response (EC50) was more than 25 µM.
The matching figures for `CC(C)Oc1ccccc1C1CCN([C@@H]2CCC3(C2)CN(C(=O)C2COC2)C3)CC1` [Example 7K, (R)-(6-(4-(2-isopropoxyphenyl)piperidin-1-yl)-2-azaspiro[3.4]octan-2-yl)(oxetan-3-yl)methanone]: 0% and more than 25 µM.
As for `O=C(C1COC1)N1CC2(CC[C@@H](N3CCC(c4ccccc4OC(F)(F)F)CC3)C2)C1` [Example 12A, (R)-oxetan-3-yl(6-(4-(2-(trifluoromethoxy)phenyl)piperidin-1-yl)-2-azaspiro[3.4]octan-2-yl)methanone], the Emax is 0% and the EC50 was more than 25 µM.
The matching figures for `COc1ccc(F)cc1C1CCN([C@@H]2CCC3(C2)CN(C(=O)C2COC2)C3)CC1` [Example 6A, (R)-(6-(4-(5-fluoro-2-methoxyphenyl)piperidin-1-yl)-2-azaspiro[3.4]octan-2-yl)(oxetan-3-yl)methanone]: 0% and more than 25 µM.
The matching figures for `COc1ccccc1C1CCN([C@@H]2CCC3(C2)CN(c2nncs2)C3)CC1` [Example 3D, (R)-2-(6-(4-(2-methoxyphenyl)piperidin-1-yl)-2-azaspiro[3.4]octan-2-yl)-1,3,4-thiadiazole]: 0% and more than 25 µM.
For `COc1ccccc1C1CCN([C@@H]2CCC3(C2)CN(c2ccns2)C3)CC1` [Example 3I, (R)-5-(6-(4-(2-methoxyphenyl)piperidin-1-yl)-2-azaspiro[3.4]octan-2-yl)isothiazole] the same measures were 0% and more than 25 µM.
Turning to `Fc1cccc(C2CCN([C@@H]3CCC4(C3)CN(c3cncnc3)C4)CC2)c1OC1COC1` [Example 5W, (R)-6-(4-(3-fluoro-2-(oxetan-3-yloxy)phenyl)piperidin-1-yl)-2-(pyrimidin-5-yl)-2-azaspiro[3.4]octane], the Emax is 0% and the EC50 is more than 25 µM.
For `c1ccc(C2CCN([C@@H]3CCC4(C3)CN(c3nncs3)C4)CC2)c(OCC2CCOCC2)c1` [Example 1I, (R)-2-(6-(4-(2-((tetrahydro-2H-pyran-4-yl)methoxy)phenyl)piperidin-1-yl)-2-azaspiro[3.4]octan-2-yl)-1,3,4-thiadiazole] the same measures were 0% and more than 25 µM.
For `Fc1ccc(C2CCOCC2)c(C2CCN([C@@H]3CCC4(C3)CN(c3nnco3)C4)CC2)c1` [Example 2I, (R)-2-(6-(4-(5-fluoro-2-(tetrahydro-2H-pyran-4-yl)phenyl)piperidin-1-yl)-2-azaspiro[3.4]octan-2-yl)-1,3,4-oxadiazole] the same measures were 0% and more than 25 µM.
The matching figures for `O=C(C1COC1)N1CC2(CC[C@@H](N3CCC(c4ccccc4OCCOC4COC4)CC3)C2)C1` [Example 7EE, (R)-oxetan-3-yl(6-(4-(2-(2-(oxetan-3-yloxy)ethoxy)phenyl)piperidin-1-yl)-2-azaspiro[3.4]octan-2-yl)methanone]: 0% and more than 25 µM.
As to `c1ccc(C2CCN([C@@H]3CCC4(C3)CN(c3cncnc3)C4)CC2)c(OCC2COC2)c1` [Example 1N, (R)-6-(4-(2-(oxetan-3-ylmethoxy)phenyl)piperidin-1-yl)-2-(pyrimidin-5-yl)-2-azaspiro[3.4]octane], the Emax worked out at 0% and the EC50 was more than 25 µM.
